According to patent US20240109903A1, “SUBSTITUTED HETEROCYCLES FOR TREATING CANCER” (Northwestern University, priority 2022, published 2024):

Experiments:
Assay type in all cases: cell-based
SW-620 = assay: NCI 60 five-dose screen SW-620; conditions: Homo sapiens, five-dose
HCT-116 = assay: NCI 60 five-dose screen HCT-116; conditions: Homo sapiens, five-dose
TK-10 = assay: NCI 60 five-dose screen TK-10; conditions: Homo sapiens, five-dose
KM12 = assay: NCI 60 five-dose screen KM12; conditions: Homo sapiens, five-dose
HCT-15 = assay: NCI 60 five-dose screen HCT-15; conditions: Homo sapiens, five-dose
DU-145 = assay: NCI 60 five-dose screen DU-145; conditions: Homo sapiens, five-dose
MALME-3M = assay: NCI 60 five-dose screen MALME-3M; conditions: Homo sapiens, MALME-3M, five-dose
HS 578T = assay: NCI 60 five-dose screen HS 578T; conditions: Homo sapiens, five-dose
HL-60(TB) = assay: NCI 60 five-dose screen HL-60(TB); conditions: Homo sapiens, five-dose
NCI-H522 = assay: NCI 60 five-dose screen NCI-H522; conditions: Homo sapiens, five-dose
BT-549 = assay: NCI 60 five-dose screen BT-549; conditions: Homo sapiens, five-dose
OVCAR-3 = assay: NCI 60 five-dose screen OVCAR-3; conditions: Homo sapiens, five-dose
MDA-MB-435 = assay: NCI 60 five-dose screen MDA-MB-435; conditions: Homo sapiens, five-dose
A498 = assay: NCI 60 five-dose screen A498; conditions: Homo sapiens, five-dose
NCI/ADR-RES = assay: NCI 60 five-dose screen NCI/ADR-RES; conditions: Homo sapiens, five-dose
M14 = assay: NCI 60 five-dose screen M14; conditions: Homo sapiens, five-dose
CAKI-1 = assay: NCI 60 five-dose screen CAKI-1; conditions: Homo sapiens, five-dose
SK-MEL-5 = assay: NCI 60 five-dose screen SK-MEL-5; conditions: Homo sapiens, five-dose
K-562 = assay: NCI 60 five-dose screen K-562; conditions: Homo sapiens, K562, five-dose
MCF7 = assay: NCI 60 five-dose screen MCF7; conditions: Homo sapiens, five-dose
OVCAR-5 = assay: NCI 60 five-dose screen OVCAR-5; conditions: Homo sapiens, five-dose
PC-3 = assay: NCI 60 five-dose screen PC-3; conditions: Homo sapiens, five-dose
HT29 = assay: NCI 60 five-dose screen HT29; conditions: Homo sapiens, HT-29, five-dose
EKVX = assay: NCI 60 five-dose screen EKVX; conditions: Homo sapiens, five-dose
ACHN = assay: NCI 60 five-dose screen ACHN; conditions: Homo sapiens, five-dose
CCRF-CEM = assay: NCI 60 five-dose screen CCRF-CEM; conditions: Homo sapiens, five-dose
SK-MEL-2 = assay: NCI 60 five-dose screen SK-MEL-2; conditions: Homo sapiens, five-dose
HOP-92 = assay: NCI 60 five-dose screen HOP-92; conditions: Homo sapiens, five-dose
[1] = read-out: LC50 (the source's name) (converted)
[2] = read-out: LC50 (the source's name)

## FC(F)(F)c1cc2c(Cl)ncnc2n1CCN1CCOCC1 [NUCC-0226680]
SW-620
  GI50: 10.5 µM
  IC50: 14.5 µM
  IC (TGI): 56.2 µM
SW-620; [1]
  CC50: ≥ 100 µM
HCT-116
  GI50: 4.68 µM
  IC50: 5.62 µM
  IC (TGI): 100 µM
HCT-116; [1]
  CC50: ≥ 100 µM
TK-10
  GI50: 100 µM
  IC50: 100 µM
  IC (TGI): 100 µM
TK-10; [1]
  CC50: ≥ 100 µM
KM12
  GI50: 35.5 µM
  IC50: 51.3 µM
  IC (TGI): 100 µM
KM12; [1]
  CC50: ≥ 100 µM
HCT-15
  GI50: 3.31 µM
  IC50: 4.27 µM
  IC (TGI): 17.8 µM
HCT-15; [1]
  CC50: ≥ 100 µM
DU-145
  GI50: 28.8 µM
  IC50: 50.1 µM
  IC (TGI): 100 µM
DU-145; [1]
  CC50: ≥ 100 µM
MALME-3M
  GI50: 21.9 µM
  IC50: 87.1 µM
  IC (TGI): 67.6 µM
MALME-3M; [1]
  CC50: ≥ 100 µM
HS 578T
  GI50: 16.6 µM
  IC50: 100 µM
  IC (TGI): 58.9 µM
HS 578T; [2]
  CC50: ≥ 100 µM
HL-60(TB)
  GI50: 2.09 µM
  IC50: 3.89 µM
  IC (TGI): 6.03 µM
HL-60(TB); [1]
  CC50: 66.1 µM
NCI-H522
  GI50: 1.48 µM
  IC50: 2.95 µM
  IC (TGI): 3.31 µM
BT-549
  GI50: 13.5 µM
  IC50: 28.2 µM
  IC (TGI): 28.2 µM
BT-549; [1]
  CC50: 58.9 µM
OVCAR-3
  GI50: 19.5 µM
  IC50: 37.2 µM
  IC (TGI): 43.7 µM
OVCAR-3; [1]
  CC50: 97.7 µM
MDA-MB-435
  GI50: 13.2 µM
  IC50: 22.4 µM
  IC (TGI): 29.5 µM
MDA-MB-435; [1]
  CC50: 64.6 µM
A498
  GI50: 100 µM
  IC50: 100 µM
  IC (TGI): 100 µM
A498; [1]
  CC50: ≥ 100 µM
NCI/ADR-RES
  GI50: 30.2 µM
  IC50: 57.5 µM
  IC (TGI): 100 µM
NCI/ADR-RES; [1]
  CC50: ≥ 100 µM
M14
  GI50: 11.5 µM
  IC50: 20.4 µM
  IC (TGI): 36.3 µM
M14; [1]
  CC50: ≥ 100 µM
CAKI-1
  GI50: 27.5 µM
  IC50: 56.2 µM
  IC (TGI): 100 µM
CAKI-1; [1]
  CC50: ≥ 100 µM
SK-MEL-5
  GI50: 12.9 µM
  IC50: 22.9 µM
  IC (TGI): 29.5 µM
SK-MEL-5; [1]
  CC50: 67.6 µM
K-562
  GI50: 3.02 µM
  IC50: 3.72 µM
  IC (TGI): 18.6 µM
K-562; [2]
  CC50: ≥ 100 µM
MCF7
  GI50: 25.1 µM
  IC50: 35.5 µM
  IC (TGI): 100 µM
MCF7; [1]
  CC50: ≥ 100 µM
OVCAR-5
  GI50: 100 µM
  IC50: 100 µM
  IC (TGI): 100 µM
OVCAR-5; [1]
  CC50: ≥ 100 µM
PC-3
  GI50: 11.2 µM
  IC50: 19.1 µM
  IC (TGI): 36.3 µM
PC-3; [1]
  CC50: ≥ 100 µM
HT29
  GI50: 27.5 µM
  IC50: 36.3 µM
  IC (TGI): 100 µM
HT29; [1]
  CC50: ≥ 100 µM
EKVX
  GI50: 17 µM
  IC50: 50.1 µM
  IC (TGI): 95.5 µM
EKVX; [1]
  CC50: ≥ 100 µM
ACHN
  GI50: 7.59 µM
  IC50: 15.5 µM
  IC (TGI): 100 µM
ACHN; [1]
  CC50: ≥ 100 µM
CCRF-CEM
  GI50: 16.6 µM
  IC50: 35.5 µM
  IC (TGI): 100 µM
CCRF-CEM; [2]
  CC50: ≥ 100 µM
SK-MEL-2
  GI50: 17.4 µM
  IC50: 33.9 µM
  IC (TGI): 33.1 µM
SK-MEL-2; [1]
  CC50: 64.6 µM
HOP-92
  GI50: 19.1 µM
  IC50: 79.4 µM
  IC (TGI): 60.3 µM
HOP-92; [1]
  CC50: ≥ 100 µM
